Results: patent EP4008716A1, “NOVEL INHIBITORS OF INSULIN-LIKE GROWTH FACTOR 2 MRNA BINDING PROTEINS” (Martin-Luther-Universität Halle-Wittenberg, priority 2020, dated 2022)

System: ES-2 cells
Test: Cytotoxicity / cell vitality by cell confluency (IncuCyte live-cell imaging) relative to DMSO controls
Assay type: cell-based
Settings: Homo sapiens, ovarian cancer-derived ES-2 cells, 72 h post compound application, eleven concentrations, two-fold dilution from 20µM, mean of three independent studies
Description: All novel inhibitors were explored for their cytotoxic activity in ovarian cancer-derived ES-2 cells. In these cell models, BTYNB was prior shown to impair cell vitality and metastatic potential in vitro and cancer mouse models (15). For the respective studies ES-2 cells were plated and exposed to increasing concentration of the compounds and cell vitality was monitored by determining cell confluency relative to DMSO controls using an IncuCyte cell imaging system, essentially as described recently (15). For determining the impact of the developed compounds on ES-2 cell vitality, cells were cultured in Dulbecco's modified eagle medium (DMEM) containing phenol red, 4.5 g/L D-Glucose, 0.11 g/L sodium pyruvate, 10% (v/v) fetal bovine serum (FBS) and 2 mM GlutaMAX (Sigma-Aldrich, Darmstadt, Germany). Cells were maintained in under humidified conditions at 37 °C, 5% CO2. For cytotoxicity studies, cells were seeded in 96-well flat-bottom plates at 2 x 10^3 cells per well in 100 µL supplemented DMEM and incubated for 24 h prior to addition of BTYNB derivatives. Compounds were analyzed at eleven concentrations using a two-fold dilution with an initial compound concentration of 20µM in DMSO (solvent). Cells treated with 0.002% (v/v) DMSO served as controls. Cytotoxicity of compound concentrations was determined 72 h post compound application by monitoring cell confluency using an IncuCyte Systems for Live-Cell Imaging. Cell confluency was determined with the IncuCyte 2019B Rev2 software. Confluency of controls was set to 1 (100%) and altered confluency at distinct compound concentrations was calculated as relative confluency. The mean relative confluency at compound concentrations was analyzed in three independent studies with three technical replicates each. The mean values of three analyses were plotted against the logarithmic concentration of compounds and fitted by the non-linear module [Sigmoidal, 4PL, X is log(concentration)] using GraphPad Prism V9(86) for macOS. In Table 1 compounds with EC50 values, indicating the potency of the 58 developed compounds to impair cell vitality, are listed. […] Table 2: EC-values of the synthesized compounds of formula (I)

SMILES	EC50 [nM]
NC(=O)c1cc(Cc2ccccc2)sc1NC(=O)c1ccc(COc2ccc(Br)cc2)cc1 [compound 43, 5-Benzyl-2-({4-[(4-bromophenoxy)methyl]benzoyl}amino)-3-thiophenecarboxamide]	1190
COc1ccc(C(=O)Nc2sc(Cc3ccccc3)cc2C(N)=O)cc1COc1ccccc1Cl [compound 44, 5-Benzyl-2-({3-[(2-chlorophenoxy)methyl]-4-methoxybenzoyl}amino)-3-thiophenecarboxamide]	439
COc1ccc(C(=O)Nc2sc(Cc3ccccc3)cc2C(N)=O)cc1COc1cccc(Cl)c1Cl [compound 45, 5-Benzyl-2-({3-[(2,3-dichlorophenoxy)methyl]-4-methoxybenzoyl}amino)-3-thiophenecarboxamide]	401
COc1ccc(C(=O)Nc2sc(C(C)C)cc2C(N)=O)cc1COc1ccccc1Cl [compound 46, 2-({3-[(2-Chlorophenoxy)methyl]-4-methoxybenzoyl}amino)-5-isopropyl-3-thiophenecarboxamide]	2230
COc1ccc(C(=O)Nc2sc(Cc3ccccc3)cc2C(N)=O)cc1COc1ccc(Cl)cc1Cl [compound 47, 5-Benzyl-2-{3-[(2,4-dichlorophenoxy)methyl]-4-methoxybenzamido}thiophene-3-carboxamide]	293
COc1ccc(C(=O)Nc2sc(Cc3ccccc3)cc2C(N)=O)cc1OCc1ccccc1Cl [compound 48, 2-[3-(2-Chlorobenzyloxy)-4-methoxybenzamido]-5-benzylthiophene-3-carboxamide]	1100
NC(=O)c1cc(Cc2ccccc2)sc1NC(=O)c1ccc(COc2ccc(Cl)cc2Cl)s1 [compound 49, N-(5-Benzyl-3-carbamoylthiophen-2-yl)-5-[(2,4-dichlorophenoxy)methyl]thiophene-2-carboxamide]	560
NC(=O)c1cc(Cc2ccccc2)sc1NC(=O)c1cccc(COc2ccc(Cl)cc2Cl)c1 [compound 50, 5-Benzyl-2-{3-[(2,4-dichlorophenoxy)methyl]benzamido}thiophene-3-carboxamide]	47
COc1ccc(C(=O)Nc2sc(Cc3ccccc3)cc2C(N)=O)cc1COc1cccc(Cl)c1 [compound 51, 5-Benzyl-2-{3-[(3-chlorophenoxy)methyl]-4-methoxybenzamido}thiophene-3-carboxamide]	355
COc1ccc(C(=O)Nc2sc(Cc3ccccc3)cc2C(N)=O)cc1COc1ccc(Cl)cc1 [compound 52, 5-Benzyl-2-{3-[(4-chlorophenoxy)methyl]-4-methoxybenzamido}thiophene-3-carboxamide]	1020
COc1ccc(C(=O)Nc2sc(Cc3ccccc3)cc2C(N)=O)cc1COc1c(Cl)cccc1Cl [compound 53, 5-Benzyl-2-{3-[(2,6-dichlorophenoxy)methyl]-4-methoxybenzamido}thiophene-3-carboxamide]	2600
NC(=O)c1cc(Cc2ccccc2)sc1NC(=O)CN1CCN(Cc2ccccc2Cl)CC1 [compound 54, 2-{2-[4-(2-Chlorobenzyl)piperazin-1-yl]acetamido}-5-benzylthiophene-3-carboxamide]	7110
NC(=O)c1cc(Cc2ccccc2)sc1NC(=O)CN1CCN(Cc2ccc(Cl)c(Cl)c2)CC1 [compound 55, 2-{2-[4-(3,4-Dichlorobenzyl)piperazin-1-yl]acetamido}-5-benzylthiophene-3-carboxamide]	4090
NC(=O)c1ccsc1NC(=O)CN1CCN(Cc2ccc(Cl)c(Cl)c2)CC1 [compound 56, 2-{2-[4-(3,4-Dichlorobenzyl)piperazin-1-yl]acetamido}thiophene-3-carboxamide]	781
COc1ccc(C(=O)Nc2sc(C(C)C)cc2C(N)=O)cc1COc1ccc(Br)cc1 [compound 58, 2-({3-[(4-Bromophenoxy)methyl]-4-methoxybenzoyl}amino)-5-isopropyl-3-thiophenecarboxamide]	8340

System: ES-2 cells
Test: as above
Assay type: cell-based
Settings: Homo sapiens, determined in 11 analyses with three technical replicates each

SMILES	EC50 [nM]
NC(=O)c1ccccc1N=Cc1ccc(Br)s1 [BTYNB, 2-{[(5-bromo-2-thienyl)methylene]amino}benzamide]	5900
